Converted amounts (≈) assume the structure as drawn.
Tests used:
Assay in all cases: In vitro antibiotic activity, agar dilution method (Mueller-Hinton agar, NCCLS)
Assay type in all cases: cell-based
P. aeruginosa PAO1 = conditions: Pseudomonas aeruginosa, PAO1; agar dilution, Mueller-Hinton agar; read-out: MIC for P. aeruginosa PAO1
Method in brief: (§1)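 MICs determined by agar dilution on Mueller-Hinton agar following NCCLS M7 guidance, against E. coli ATCC 25922, K. pneumoniae ATCC 29665 and P. aeruginosa PAO1.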

E. coli ATCC 25922 = conditions: Escherichia coli, ATCC25922; agar dilution, Mueller-Hinton agar; read-out: MIC for E. coli ATCC 25922
Method in brief: as §1

K. pneumoniae ATCC 29665 = conditions: Klebsiella pneumoniae, ATCC29665; agar dilution, Mueller-Hinton agar; read-out: MIC for K. pneumoniae ATCC 29665
Method in brief: as §1

SMILES	MIC (P. aeruginosa PAO1) [µg/mL]	MIC (E. coli ATCC 25922) [µg/mL]	MIC (K. pneumoniae ATCC 29665) [µg/mL]
CN(C)CC#Cc1ccc(C2=CCN(CCC(C)(C(=O)NO)S(C)(=O)=O)CC2)cc1 (stereo not drawn) [Example 7, 4-(4-(4-(3-(dimethylamino)prop-1-yn-1-yl)phenyl)-3,6-dihydropyridin-1(2H)-yl)-N-hydroxy-2-methyl-2-(methylsulfonyl)butanamide]	1 to 8 (≈ 2.31 to 18.5 µM)	1 to 8 (≈ 2.31 to 18.5 µM)	1 to 8 (≈ 2.31 to 18.5 µM)
CC(CCN1CC=C(c2ccc(C#CCOCCCO)cc2)CC1)(C(=O)NO)S(C)(=O)=O (stereo not drawn) [Example 24, N-hydroxy-4-(4-(4-(3-(3-hydroxypropoxy)prop-1-yn-1-yl)phenyl)-3,6-dihydropyridin-1(2H)-yl)-2-methyl-2-(methylsulfonyl)butanamide]	1 to 8 (≈ 2.15 to 17.2 µM)	1 to 8 (≈ 2.15 to 17.2 µM)	1 to 8 (≈ 2.15 to 17.2 µM)
CC(CCN1CC=C(c2ccc(C#CC#CC3CC3)c(F)c2)CC1)(C(=O)NO)S(C)(=O)=O (stereo not drawn) [Example 44, 4-(4-(4-(cyclopropylbuta-1,3-diyn-1-yl)-3-fluorophenyl)-3,6-dihydropyridin-1(2H)-yl)-N-hydroxy-2-methyl-2-(methylsulfonyl)butanamide]	1 to 8 (≈ 2.18 to 17.4 µM)	< 1	1 to 8 (≈ 2.18 to 17.4 µM)
CC(CCN1CC=C(c2ccc(-c3ccncc3)cc2)CC1)(C(=O)NO)S(C)(=O)=O (stereo not drawn) [Example 55, N-hydroxy-2-methyl-2-(methylsulfonyl)-4-(4-(4-(pyridin-4-yl)phenyl)-3,6-dihydropyridin-1(2H)-yl)butanamide]	1 to 8 (≈ 2.33 to 18.6 µM)	1 to 8 (≈ 2.33 to 18.6 µM)	1 to 8 (≈ 2.33 to 18.6 µM)
CC(O)C#Cc1ccc(C2=CCN(CCC(C)(C(=O)NO)S(C)(=O)=O)CC2)cc1 (stereo not drawn) [Example 8, N-hydroxy-4-(4-(4-(3-hydroxybut-1-yn-1-yl)phenyl)-3,6-dihydropyridin-1(2H)-yl)-2-methyl-2-(methylsulfonyl)butanamide]	> 16	> 16	> 16

Reference: patent publication US10160724B2, “Tetrahydropyridine derivatives and their use as antibacterial agents” (Dong-A St Co., Ltd., priority 2016, dated 2018)
